Where two headings read alike, the source gives them in different places.
Tests used:
E. coli #G1880E = format: cell-based
[1] = test system: kanamycin resistant S. aureus; assay: Checkerboard titration assay for synergy of honeybee venom with antibiotics (OD660 growth curves); format: cell-based

Substance: Polymyxin B
- MEAN A660 (E. coli #G1880E; POLY B = 1.5, HBV = 0, T0): 0.012
- MEAN A660 (E. coli #G1880E; POLY B = 1.5, HBV = 0, T2): 0.040
- MEAN A660 (E. coli #G1880E; POLY B = 1.5, HBV = 0, T4): 0.411
- MEAN A660 (E. coli #G1880E; POLY B = 1.5, HBV = 0, T6): 0.984
- MEAN A660 (E. coli #G1880E; POLY B = 1.5, HBV = 0, T8): 1.020
- MEAN A660 (E. coli #G1880E; POLY B = 1.5, HBV = 0, T12): 1.075
- MEAN A660 (E. coli #G1880E; POLY B = 1.5, HBV = 0, T24): 1.200
- MEAN A660 (E. coli #G1880E; POLY B = 3, HBV = 0, T0): 0.012
- MEAN A660 (E. coli #G1880E; POLY B = 3, HBV = 0, T2): 0.040
- MEAN A660 (E. coli #G1880E; POLY B = 3, HBV = 0, T4): 0.138
- MEAN A660 (E. coli #G1880E; POLY B = 3, HBV = 0, T6): 0.642
- MEAN A660 (E. coli #G1880E; POLY B = 3, HBV = 0, T8): 0.943
- MEAN A660 (E. coli #G1880E; POLY B = 3, HBV = 0, T12): 0.985
- MEAN A660 (E. coli #G1880E; POLY B = 3, HBV = 0, T24): 1.116
- MEAN A660 (E. coli #G1880E; POLY B = 6, HBV = 0, T0): 0.012
- MEAN A660 (E. coli #G1880E; POLY B = 6, HBV = 0, T2): 0.040
- MEAN A660 (E. coli #G1880E; POLY B = 6, HBV = 0, T4): 0.022
- MEAN A660 (E. coli #G1880E; POLY B = 6, HBV = 0, T6): 0.014
- MEAN A660 (E. coli #G1880E; POLY B = 6, HBV = 0, T8): 0.011
- MEAN A660 (E. coli #G1880E; POLY B = 6, HBV = 0, T12): 0.109
- MEAN A660 (E. coli #G1880E; POLY B = 6, HBV = 0, T24): 0.975
- MEAN A660 (E. coli #G1880E; POLY B = 12, HBV = 0, T0): 0.012
- MEAN A660 (E. coli #G1880E; POLY B = 12, HBV = 0, T2): 0.040
- MEAN A660 (E. coli #G1880E; POLY B = 12, HBV = 0, T4): 0.018
- MEAN A660 (E. coli #G1880E; POLY B = 12, HBV = 0, T6): 0.011
- MEAN A660 (E. coli #G1880E; POLY B = 12, HBV = 0, T8): 0.009
- MEAN A660 (E. coli #G1880E; POLY B = 12, HBV = 0, T12): 0.075
- MEAN A660 (E. coli #G1880E; POLY B = 12, HBV = 0, T24): 0.472
- MEAN A660 (E. coli #G1880E; POLY B = 625, HBV = 0, T0): 0.006
- MEAN A660 (E. coli #G1880E; POLY B = 625, HBV = 0, T2): 0.074
- MEAN A660 (E. coli #G1880E; POLY B = 625, HBV = 0, T4): 0.330
- MEAN A660 (E. coli #G1880E; POLY B = 625, HBV = 0, T6): 0.766
- MEAN A660 (E. coli #G1880E; POLY B = 625, HBV = 0, T8): 1.048
- MEAN A660 (E. coli #G1880E; POLY B = 625, HBV = 0, T12): 1.238
- MEAN A660 (E. coli #G1880E; POLY B = 625, HBV = 0, T24): 1.401
- MEAN A660 (E. coli #G1880E; POLY B = 1250, HBV = 0, T0): 0.006
- MEAN A660 (E. coli #G1880E; POLY B = 1250, HBV = 0, T2): 0.074
- MEAN A660 (E. coli #G1880E; POLY B = 1250, HBV = 0, T4): 0.159
- MEAN A660 (E. coli #G1880E; POLY B = 1250, HBV = 0, T6): 0.172
- MEAN A660 (E. coli #G1880E; POLY B = 1250, HBV = 0, T8): 0.259
- MEAN A660 (E. coli #G1880E; POLY B = 1250, HBV = 0, T12): 0.778
- MEAN A660 (E. coli #G1880E; POLY B = 1250, HBV = 0, T24): 1.362
- MEAN A660 (E. coli #G1880E; POLY B = 2500, HBV = 0, T0): 0.006
- MEAN A660 (E. coli #G1880E; POLY B = 2500, HBV = 0, T2): 0.074
- MEAN A660 (E. coli #G1880E; POLY B = 2500, HBV = 0, T4): 0.123
- MEAN A660 (E. coli #G1880E; POLY B = 2500, HBV = 0, T6): 0.109
- MEAN A660 (E. coli #G1880E; POLY B = 2500, HBV = 0, T8): 0.167
- MEAN A660 (E. coli #G1880E; POLY B = 2500, HBV = 0, T12): 0.075
- MEAN A660 (E. coli #G1880E; POLY B = 2500, HBV = 0, T24): 1.037
- susceptibility to polymyxin B compared with the parent strain [1]: more susceptible to polymyxin B than the parent strain
- MEAN A660 ([1]; POLY B = 12.5, HBV = 0, T0): 0.009
- MEAN A660 ([1]; POLY B = 12.5, HBV = 0, T2): 0.068
- MEAN A660 ([1]; POLY B = 12.5, HBV = 0, T4): 0.266
- MEAN A660 ([1]; POLY B = 12.5, HBV = 0, T6): 0.640
- MEAN A660 ([1]; POLY B = 12.5, HBV = 0, T8): 0.826
- MEAN A660 ([1]; POLY B = 12.5, HBV = 0, T12): 0.976
- MEAN A660 ([1]; POLY B = 12.5, HBV = 0, T24): 0.962
- MEAN A660 ([1]; POLY B = 25, HBV = 0, T0): 0.009
- MEAN A660 ([1]; POLY B = 25, HBV = 0, T2): 0.068
- MEAN A660 ([1]; POLY B = 25, HBV = 0, T4): 0.243
- MEAN A660 ([1]; POLY B = 25, HBV = 0, T6): 0.629
- MEAN A660 ([1]; POLY B = 25, HBV = 0, T8): 0.835
- MEAN A660 ([1]; POLY B = 25, HBV = 0, T12): 1.008
- MEAN A660 ([1]; POLY B = 25, HBV = 0, T24): 1.048
- MEAN A660 ([1]; POLY B = 50, HBV = 0, T0): 0.009
- MEAN A660 ([1]; POLY B = 50, HBV = 0, T2): 0.068
